Reference: publication PMC5608353 (PLoS ONE, 2017)
≈ marks a conversion by molar mass, not a printed value. Where “and” joins values, the source holds several entries; their conditions need not be identical. Equal values may be shown once. Read-outs that look alike come from different tables or passages of the source. Where a SMILES comes first, the peptide text is derived from it. Bridges are numbered along the chain shown (N, C = ends).

Legend:
[1] = tested on: C. perfringens CVCC 46; experiment: microbe, parasite or virus in culture; details: Clostridium perfringens, CVCC46, 18 h
[2] = tested on: C. perfringens CVCC 1137; experiment: microbe, parasite or virus in culture; details: Clostridium perfringens, CVCC1137, 18 h
[3] = tested on: C. perfringens CVCC 46; type: cell-based, Clostridium perfringens type A
[4] = tested on: C. perfringens CVCC 46; experiment: microbe, parasite or virus in culture; details: Clostridium perfringens, CVCC46, read-out: MICa (MIC of drug used alone)
[5] = tested on: C. perfringens CVCC 51; experiment: microbe, parasite or virus in culture; details: Clostridium perfringens, CVCC51, 18 h
[6] = tested on: C. perfringens JZ10; experiment: microbe, parasite or virus in culture; details: Clostridium perfringens, JZ10, 18 h
[7] = tested on: C. perfringens CVCC 46
[8] = tested on: C. perfringens JC2; experiment: microbe, parasite or virus in culture; details: Clostridium perfringens, JC2, 18 h
[9] = tested on: C. perfringens JT1; experiment: microbe, parasite or virus in culture; details: Clostridium perfringens, JT1, 18 h
[10] = tested on: C. perfringens JC2
[11] = tested on: C. perfringens CVCC 46; type: cell-based, Clostridium perfringens type A; remark: listed apart in the source
[12] = tested on: C. perfringens JZ10
[13] = tested on: C. perfringens CVCC 46; remark: listed apart in the source
[14] = tested on: C. perfringens genomic DNA; type: binding, Clostridium perfringens
[15] = tested on: C. perfringens type C CVCC 61 cells; details: cited from earlier work
[16] = tested on: C. perfringens CVCC 1137
[17] = tested on: C. perfringens JT1
[18] = tested on: C. perfringens CVCC 46 genomic DNA; type: binding, Clostridium perfringens type A
[19] = tested on: C. perfringens CVCC 51
[20] = tested on: C. perfringens CVCC 46; type: cell-based, Clostridium perfringens type A; remark: listed apart in the source
[21] = tested on: human erythrocytes, epidermal keratinocytes, A549 cells, murine L929 fibroblasts, porcine intestinal epithelial cell line ZYMSIEC02; details: cited from earlier work
[22] = CVCC 46, 2×MIC, 1×10^5 CFU/mL, 37°C, colony counts
[23] = JC2, broth microdilution, anaerobic 37°C, 12~18 h
[24] = JZ10, broth microdilution, anaerobic 37°C, 12~18 h
[25] = CVCC 46, broth microdilution, 1×10^5 CFU/mL, anaerobic 37°C, 12~18 h, triplicate
[26] = CVCC 46, broth microdilution, anaerobic 37°C, 12~18 h, triplicate
[27] = CVCC 1137, broth microdilution, anaerobic 37°C, 12~18 h
[28] = JT1, broth microdilution, anaerobic 37°C, 12~18 h
[29] = CVCC 46, chequerboard, drug alone, triplicate
[30] = CVCC 51, broth microdilution, anaerobic 37°C, 12~18 h

Molecule: CN(C)[C@@H]1C(O)=C(C(N)=O)C(=O)[C@@]2(O)C(O)=C3C(=O)c4c(O)ccc(Cl)c4[C@@](C)(O)[C@H]3C[C@@H]12 [Aureomycin]
- MBC [1]: 8.36 µM (≈ 4 µg/mL)
- MIC [1]: 4.18 µM (≈ 2 µg/mL)
- MIC [2]: 0.52 µM (≈ 0.249 µg/mL)
- Time to 99.9% reduction of bacterial counts [3, 22]: 2~4 h
- Bacterial regrowth in time-kill curve ([3]; CVCC 46, 2×MIC, followed for 10 h): regrowth of C. perfringens strain CVCC 46 was observed
- MIC [4]: 8.36 µM
- MIC [5]: 1.04 µM (≈ 0.498 µg/mL)
- MIC [6]: 16.7 µM (≈ 8 µg/mL)
- MICC (MIC of drug used in combination) ([7]; combination Aureomycin-MP1102, CVCC 46): 2.09 µM
- FIC ([7]; combination Aureomycin-MP1102, MIC in combination / MIC alone): 0.25
- MICC (MIC of drug used in combination) ([7]; combination Aureomycin-NZ2114, CVCC 46): 4.18 µM
- FIC ([7]; combination Aureomycin-NZ2114, MIC in combination / MIC alone): 0.5
- MIC [8]: 16.7 µM (≈ 8 µg/mL)
- MIC [9]: 16.7 µM (≈ 8 µg/mL)

Molecule: CCC[C@@H]1C[C@@H](C(=O)N[C@@H]([C@H]2O[C@H](SC)[C@H](O)[C@@H](O)[C@H]2O)[C@@H](C)O)N(C)C1 [Lincomycin]
- MBC [1]: 8.68 µM (≈ 3.53 µg/mL)
- MIC [1]: 8.68 µM (≈ 3.53 µg/mL)
- MIC [2]: 2.17 µM (≈ 0.882 µg/mL)
- Time to 99.9% reduction of bacterial counts [3, 22]: 2~4 h
- MIC [4]: 8.68 µM
- MIC [5]: 4.3 µM (≈ 1.75 µg/mL)
- MIC [6]: > 278 µM
- MICC (MIC of drug used in combination) ([7]; combination Lincomycin-MP1102, CVCC 46): 4.34 µM
- FIC ([7]; combination Lincomycin-MP1102, MIC in combination / MIC alone): 0.5
- MICC (MIC of drug used in combination) ([7]; combination Lincomycin-NZ2114, CVCC 46): 4.34 µM
- FIC ([7]; combination Lincomycin-NZ2114, MIC in combination / MIC alone): 0.5
- MIC [8]: > 278 µM
- MIC [9]: 2.2 µM (≈ 0.894 µg/mL)

Molecule: CC[C@H](C)[C@@H]1NC(=O)[C@H](CO)NC(=O)[C@H](CCCCN)NC(=O)[C@@H]2CSSC[C@@H](C(=O)N[C@@H](Cc3ccc(O)cc3)C(=O)O)NC(=O)[C@H](CCCCN)NC(=O)[C@@H]3CSSC[C@H](NC(=O)[C@H](CCCCN)NC(=O)[C@H](C(C)C)NC(=O)[C@H](CC(=O)O)NC(=O)[C@H](CC(=O)O)NC(=O)[C@H](CCC(=O)O)NC(=O)[C@H](CCC(N)=O)NC(=O)[C@H](Cc4c[nH]c5ccccc45)NC(=O)[C@@H]4CCCN4C(=O)CNC(=O)[C@H](CC(N)=O)NC(=O)[C@@H](NC(=O)CNC(=O)[C@H](Cc4ccccc4)NC(=O)CN)CSSC[C@H](NC(=O)[C@H](Cc4ccc(O)cc4)NC(=O)CNC(=O)CNC(=O)[C@H](CCCCN)NC(=O)[C@H](Cc4ccc(O)cc4)NC(=O)CNC(=O)[C@H](CCCCN)NC1=O)C(=O)N[C@@H](C)C(=O)N[C@@H](CCCCN)C(=O)NCC(=O)NCC(=O)N[C@@H](Cc1ccccc1)C(=O)N[C@@H](C(C)C)C(=O)N3)C(=O)N[C@@H](Cc1c[nH]cn1)C(=O)N[C@@H](CC(N)=O)C(=O)N[C@@H](Cc1c[nH]cn1)C(=O)N2 [MP1102] (H-GFGCNGPWQEDDVKCHNHCKSIKGYKGGYCAKGGFVCKCY-OH; disulfide 4-30, 15-37, 19-39)
- MIC ([10]; JC2, 18 h): >14.5 µM
- Ratio of cells in phase I [11]: 8.14% and 13.65%
- MIC ([12]; JZ10, 18 h): >14.5 µM
- MBC ([13]; CVCC 46, 18 h): 0.91 µM (≈ 3.99 µg/mL)
- MIC ([13]; CVCC 46, 18 h): 0.91 µM (≈ 3.99 µg/mL)
- Change of CD spectrum of genomic DNA [14]: DNA ellipticity intensity decreased
- PI-stained percentages of cells [15]: 3.11~5.67%
- Bacterial regrowth in time-kill curve [3]: no bacterial regrowth
- Time to 99.9% reduction of bacterial counts [3]: ≤ 1 h
- MIC ([16]; CVCC 1137, 18 h): 1.82 µM (≈ 7.98 µg/mL)
- MIC ([17]; JT1, 18 h): 0.46 µM (≈ 2.02 µg/mL)
- Binding to genomic DNA (gel retardation) [18]: interacted with MDR C. perfringens CVCC 46 genomic DNA
- Peptide/DNA mass ratio for complete retardation of DNA migration [18]: > 10.0
- MICa (MIC of drug used alone) [7]: 1.82 µM
- FICI, range over the tested antibiotics ([7]; CVCC 46): 0.375~1.0
- MIC ([19]; CVCC 51, 18 h): 0.91 µM (≈ 3.99 µg/mL)
- PI-stained percentages of cells, range over time [20]: 36.5~96.7%

Molecule: CC[C@H](C)[C@@H]1NC(=O)[C@H](CO)NC(=O)[C@H](CCCCN)NC(=O)[C@@H]2CSSC[C@@H](C(=O)N[C@@H](Cc3ccc(O)cc3)C(=O)O)NC(=O)[C@H](CCCCN)NC(=O)[C@@H]3CSSC[C@H](NC(=O)[C@H](CCC(N)=O)NC(=O)[C@H](CCSC)NC(=O)[C@H](CC(=O)O)NC(=O)[C@H](CC(=O)O)NC(=O)[C@H](CCC(=O)O)NC(=O)[C@H](CC(=O)O)NC(=O)[C@H](Cc4c[nH]c5ccccc45)NC(=O)[C@@H]4CCCN4C(=O)CNC(=O)[C@H](CC(N)=O)NC(=O)[C@@H](NC(=O)CNC(=O)[C@H](Cc4ccccc4)NC(=O)CN)CSSC[C@H](NC(=O)[C@H](Cc4ccc(O)cc4)NC(=O)CNC(=O)CNC(=O)[C@H](CCCCN)NC(=O)[C@H](Cc4ccc(O)cc4)NC(=O)CNC(=O)[C@H](CCCCN)NC1=O)C(=O)N[C@@H](C)C(=O)N[C@@H](CCCCN)C(=O)NCC(=O)NCC(=O)N[C@@H](Cc1ccccc1)C(=O)N[C@@H](C(C)C)C(=O)N3)C(=O)N[C@@H](Cc1c[nH]cn1)C(=O)N[C@@H](CC(N)=O)C(=O)N[C@@H](Cc1c[nH]cn1)C(=O)N2 [Plectasin]
- Hemolysis / cytotoxicity [21]: non-hemolytic or non-cytotoxic
- MIC ([10]; JC2, 18 h): >14.5 µM
- MIC ([12]; JZ10, 18 h): >14.5 µM
- MBC ([13]; CVCC 46, 18 h): 1.81 µM (≈ 7.97 µg/mL)
- MIC ([13]; CVCC 46, 18 h): 1.81 µM (≈ 7.97 µg/mL)
- MIC ([17]; JT1, 18 h): 0.23 µM (≈ 1.01 µg/mL)

Molecule: CN[C@H](CC(C)C)C(=O)N[C@H]1C(=O)N[C@@H](CC(N)=O)C(=O)N[C@H]2C(=O)N[C@H]3C(=O)N[C@H](C(=O)N[C@H](C(=O)O)c4cc(O)cc(O)c4-c4cc3ccc4O)[C@H](O)c3ccc(c(Cl)c3)Oc3cc2cc(c3O[C@@H]2O[C@H](CO)[C@@H](O)[C@H](O)[C@H]2O[C@H]2C[C@](C)(N)[C@H](O)[C@H](C)O2)Oc2ccc(cc2Cl)[C@H]1O [Vancomycin]
- MBC [1]: 0.69 µM (≈ 1 µg/mL)
- MIC [1]: 0.69 µM (≈ 1 µg/mL)
- MIC [2]: 0.69 µM (≈ 1 µg/mL)
- Time to 99.9% reduction of bacterial counts [3]: 8 h
- MIC [4]: 0.69 µM
- MIC [5]: 0.69 µM (≈ 1 µg/mL)
- MIC [6]: 22.1 µM (≈ 32 µg/mL)
- FIC [7]: 0.5
- MICC (MIC of drug used in combination) [7]: 0.345 µM
- MIC [8]: 22.1 µM (≈ 32 µg/mL)
- MIC [9]: 0.69 µM (≈ 1 µg/mL)

Molecule: Bacitracin zinc
- MIC [10, 23]: >86.1 µM
- MIC [12, 24]: >86.1 µM
- MIC [13, 25]: 0.67 µM
- MBC [13, 26]: 1.34 µM
- Time to 99.9% reduction of bacterial counts [3, 22]: 8 h
- MIC [16, 27]: 1.35 µM
- MIC [17, 28]: 0.67 µM
- MICa (MIC of drug used alone) [7, 29]: 0.67 µM
- FIC ([7]; combination Bacitracin zinc-MP1102, MIC in combination / MIC alone): 0.5
- FIC ([7]; combination Bacitracin zinc-NZ2114, MIC in combination / MIC alone): 0.25
- MIC [19, 30]: 1.35 µM

Molecule: Virginiamycin
- MIC [10, 23]: 60.9 µM
- MIC [12, 24]: 121.8 µM
- MIC [13, 25]: 0.96 µM
- MBC [13, 26]: 0.96 µM
- Time to 99.9% reduction of bacterial counts [3, 22]: 2~4 h
- MIC [16, 27]: 0.48 µM
- MIC [17, 28]: 0.46 µM
- MICa (MIC of drug used alone) [7, 29]: 0.96 µM
- MICC (MIC of drug used in combination) ([7]; combination Virginiamycin-MP1102, CVCC 46): 0.12 µM
- FIC ([7]; combination Virginiamycin-MP1102, MIC in combination / MIC alone): 0.125
- MICC (MIC of drug used in combination) ([7]; combination Virginiamycin-NZ2114, CVCC 46): 0.48 µM
- FIC ([7]; combination Virginiamycin-NZ2114, MIC in combination / MIC alone): 0.5
- MIC [19, 30]: 0.24 µM
